According to BindingDB's records for doi:10.7270/Q2V40SNS (Nmmlsc, 2009):

Target: Ras-related protein Rab-2A (Canis lupus familiaris, UniProt P61105)
Assay: Rab2 wildtype GTP-binding inhibitors, SAR follow-up, biochemical, additional analogs, bead-based flow cytometry, multiplex (AID 2046)
[1] = inactive by the depositor's call

Sequence of Ras-related protein Rab-2A (P61105 whole entry): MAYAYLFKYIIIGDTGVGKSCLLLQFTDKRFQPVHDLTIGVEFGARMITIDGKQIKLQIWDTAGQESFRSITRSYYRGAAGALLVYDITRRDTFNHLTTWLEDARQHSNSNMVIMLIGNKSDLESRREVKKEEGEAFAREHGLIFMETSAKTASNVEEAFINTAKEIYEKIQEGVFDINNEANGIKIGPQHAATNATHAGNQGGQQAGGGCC

EC50	EC50 [1]	Compound
30 µM		O=C1Nc2c(Cl)cccc2C1=C1Nc2ccccc2C1=O
30 µM		O=C1Nc2c(Br)cccc2C1=C1Nc2ccccc2C1=O
30 µM		O=C1Nc2c(F)cccc2C1=C1Nc2ccccc2C1=O
30 µM		O=C1NC(=O)/C(=C2/C(=O)Nc3ccccc32)N1
	30 µM	O=C1Nc2cccc(Br)c2/C1=C1/Cc2ccccc2C1=O
30 µM		O=C1Nc2ccc(Br)cc2C1=C1Nc2ccccc2C1=O
	30 µM	COc1ccc(S(=O)(=O)n2c(N)c(C#N)c(-c3ccccc3)c2C(=O)c2ccc(Br)cc2)cc1
	30 µM	O=[N+]([O-])c1ccc(C#Cc2ccccc2)cc1
	30 µM	O=C(C#Cc1ccccc1)c1ccc(OC(F)(F)F)cc1
	30 µM	COc1ccc(C(=O)C#Cc2ccccc2)cc1 [1-(4-methoxyphenyl)-3-phenyl-2-propyn-1-one]
	30 µM	O=C(C#Cc1ccccc1)c1ccc([N+](=O)[O-])cc1 [1-(4-nitrophenyl)-3-phenyl-2-propyn-1-one]
	30 µM	CC(C(=O)O)c1cccc(C(=O)c2ccccc2)c1 (configuration not stated) [2-(3-benzoylphenyl)propanoic acid]
	30 µM	COc1ccc2cc(CC(=O)O)ccc2c1 [2-(6-methoxynaphthalen-2-yl)ethanoic acid]
	30 µM	CC(=O)Oc1ccccc1C(=O)O [2-(acetyloxy)benzoic acid]
30 µM		O=C1Nc2ccccc2/C1=C1/Nc2ccccc2C1=O [2-[(3Z)-2-oxo-2,3-dihydro-1H-indol-3-ylidene]-2,3-dihydro-1H-indol-3-one]
	30 µM	CCCCS(=O)(=O)n1c(N)c(C#N)c(-c2cc(OC)c(OC)c(OC)c2)c1C(=O)c1ccccc1 [2-amino-5-benzoyl-1-butylsulfonyl-4-(3,4,5-trimethoxyphenyl)-3-pyrrolecarbonitrile]
	30 µM	COc1ccc(S(=O)(=O)n2c(N)c(C#N)c(-c3cncc(Br)c3)c2C(=O)c2ccccc2)cc1 [2-amino-5-benzoyl-4-(5-bromo-3-pyridinyl)-1-(4-methoxyphenyl)sulfonyl-3-pyrrolecarbonitrile]
	30 µM	COc1ccc(-c2c(C#N)c(N)n(S(C)(=O)=O)c2C(=O)c2ccccc2)cc1Br [2-azanyl-4-(3-bromanyl-4-methoxy-phenyl)-1-methylsulfonyl-5-(phenylcarbonyl)pyrrole-3-carbonitrile]
	30 µM	COc1cc(-c2c(C#N)c(N)n(S(=O)(=O)c3c(C(C)C)cc(C(C)C)cc3C(C)C)c2C(=O)c2ccccc2)cc(OC)c1OC [2-azanyl-5-(phenylcarbonyl)-4-(3,4,5-trimethoxyphenyl)-1-[2,4,6-tri(propan-2-yl)phenyl]sulfonyl-pyrrole-3-carbonitrile]
30 µM		O=C1N=c2ccccc2=C1c1[nH]c2ccccc2c1NO [3-[3-(hydroxyamino)-1H-indol-2-yl]-2-indolone]
	30 µM	O=C(C#Cc1ccccc1)c1cccnc1 [3-phenyl-1-pyridin-3-ylprop-2-yn-1-one]

EC50	EC50 [1]	Compound
	30 µM	COC(=O)c1ccc(C(=O)C#Cc2ccccc2)cc1 [4-(1-oxo-3-phenylprop-2-ynyl)benzoic acid methyl ester]
	30 µM	N#Cc1ccc(C(=O)C#Cc2ccccc2)cc1 [4-(3-phenylprop-2-ynoyl)benzenecarbonitrile]
65.2 µM		O=C1N=c2ccc(Br)cc2=C1c1[nH]c2ccccc2c1NO [5-bromanyl-3-[3-(oxidanylamino)-1H-indol-2-yl]indol-2-one]
65.8 µM		O=C1N=c2c(Br)cccc2=C1c1[nH]c2ccccc2c1NO [7-bromanyl-3-[3-(oxidanylamino)-1H-indol-2-yl]indol-2-one]
30 µM		O=C1N=c2c(Cl)cccc2=C1c1[nH]c2ccccc2c1NO [7-chloro-3-[3-(hydroxyamino)-1H-indol-2-yl]-2-indolone]
30 µM		O=C1N=c2c(F)cccc2=C1c1[nH]c2ccccc2c1NO [7-fluoro-3-[3-(hydroxyamino)-1H-indol-2-yl]-2-indolone]
	30 µM	O=C1Nc2c(Br)cccc2/C1=C1/Cc2ccccc2C1=O [(3E)-7-bromo-3-(3-oxo-1H-inden-2-ylidene)-1H-indol-2-one]
30 µM		O=C1NC(=S)N/C1=C1\C(=O)Nc2ccccc21 [(3Z)-3-(5-oxo-2-sulfanylideneimidazolidin-4-ylidene)-1H-indol-2-one]
	30 µM	CC(C)Cc1ccc([C@H](C)C(=O)O)cc1 [(S)-2-(4-Isobutyl-phenyl)-propionic acid]
	30 µM	O=C1Nc2ccccc2/C1=C1/Cc2ccccc2C1=O [UNM-0000305763]
	30 µM	N#Cc1c(-c2ccc(Cl)cc2)c(C(=O)c2ccccc2)n(S(=O)(=O)c2ccc([N+](=O)[O-])cc2)c1N [UNM-0000305780]
	30 µM	COc1ccc(S(=O)(=O)n2c(N)c(C#N)c(-c3cc(Br)c(OC)c(OC)c3)c2C(=O)c2ccccc2)cc1 [UNM-0000305782]
	30 µM	O=C(C#Cc1ccccc1)c1ccccc1[N+](=O)[O-] [UNM-0000306038]
	30 µM	O=C(C#Cc1ccccc1)c1ccccc1 [UNM-0000306039]
	30 µM	O=C(C#Cc1ccccc1)c1ccc(Cl)cc1 [UNM-0000306055]
	30 µM	O=C(C#Cc1ccccc1)c1ccc(F)cc1 [UNM-0000306059]
30 µM		COc1ccc2cc([C@H](C)C(=O)O)ccc2c1 [UNM-0000306098]
	30 µM	CC1=C(CC(=O)O)c2cc(F)ccc2/C1=C/c1ccc([S+](C)[O-])cc1 (configuration not stated) [UNM-0000306136]
30 µM		C[C@@H](C(=O)O)c1cccc(Oc2ccccc2)c1 [calcium;2-(3-phenoxyphenyl)propanoic acid;hydrate]
1.74 µM		COc1ccc2cc([C@@H](C)C(=O)O)ccc2c1 [sodium;(2R)-2-(6-methoxy-2-naphthalenyl)propanoate]
	30 µM	CSc1ccc(/C=C2/C(C)=C(CC(=O)O)c3cc(F)ccc32)cc1 [{6-Fluoro-2-methyl-3-[1-(4-methylsulfanyl-phenyl)-meth-(E)-ylidene]-3H-inden-1-yl}-acetic acid]
